Experimental data published in article PMC5454392, “Selective BET bromodomain inhibition as an antifungal therapeutic strategy” (Nature Communications, 2017).
Several values for one entry are separate records, joined by “and”; a condition that tells them apart may be missing. Identical values can stand only once. Entries after “also recorded” stand apart in the source; their conditions may differ. Like-named read-outs stand apart in the source and are kept apart here.

Columns and labels:
CaBdf1 BD1 [1] = target: T1, CaBdf1 BD1 (Candida albicans, UniProt Q5A4W8); assay type: binding; details: CaBdf1 BD1 WT; for Peptide array signal, raw data, Left: left replicate array; for Peptide array signal, raw data, Rigt: right replicate array
T1 construct: made in house; host or cells: E. coli BL21(DE3)
T1 sequence (Q5A4W8 193-327): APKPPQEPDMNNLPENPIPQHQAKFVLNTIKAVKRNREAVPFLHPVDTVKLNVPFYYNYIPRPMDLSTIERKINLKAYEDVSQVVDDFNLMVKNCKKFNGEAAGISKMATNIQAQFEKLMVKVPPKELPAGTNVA
Experimental: (§1) In short, arrays were blocked and incubated with 1 μM of purified CaBdf1 BD1 or BD2. Arrays were incubated with recombinant BDs for 2 h at 4 °C in binding buffer (Tris-HCl 50 mM pH 7.4, NP-40 0.1%, NaCl 150 mM, glycerol 10%). […] Assays were performed in duplicate.

CaBdf1 BD2 [2] = target: T2, CaBdf1 BD2 (Candida albicans, UniProt Q5A4W8); test: HTRF assay, inhibition of BD binding to H4ac4 peptide; design: made in house; host or cells: E. coli BL21(DE3); details: HTRF
Target sequence in this assay (Q5A4W8 361-501): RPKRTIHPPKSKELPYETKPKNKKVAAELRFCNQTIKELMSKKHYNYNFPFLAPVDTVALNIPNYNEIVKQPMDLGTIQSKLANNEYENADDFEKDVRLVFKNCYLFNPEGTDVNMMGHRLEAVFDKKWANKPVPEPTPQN

human Brd4 BD1 [3] = target: T3, human Brd4 BD1 (Homo sapiens, UniProt O60885); test: as above; design: human Brd4 BD1 (residues 22–204); His tag with TEV site (N, cleaved yes); made in house; host or cells: E. coli BL21(DE3)
SMARCA2 BD [4] = target: T4, SMARCA2 BD (Homo sapiens, UniProt P51531); test: Isothermal titration calorimetry (ITC); assay type: binding
T4 construct: Human SMARCA2 and SMARCA4 BD plasmids bearing an N-terminal His tag and TEV protease site; His tag with TEV site (N, cleaved yes); 73250; host or cells: E. coli BL21(DE3)
T4 sequence (P51531 1378-1506 limits assumed): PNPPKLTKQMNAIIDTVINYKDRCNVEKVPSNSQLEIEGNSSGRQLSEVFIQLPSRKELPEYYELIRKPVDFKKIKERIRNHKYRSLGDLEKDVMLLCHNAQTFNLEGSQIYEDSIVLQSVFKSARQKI
Experimental: (§2) Proteins used for crystallization and for ITC. […] Cells were resuspended in buffer A (50 mM Tris-HCl pH 7.5, 300 mM NaCl, 10% glycerol, 25 mM imidazole, 5 mM β-mercaptoethanol and protease inhibitors) and lysed by sonication. The cleared lysate was incubated with Ni-NTA resin (Qiagen) and washed with buffer A containing 0.5 M NaCl. Proteins were eluted with 250 mM imidazole, dialysed overnight in the presence of His-tagged TEV protease against buffer A containing no imidazole and incubated with Ni-NTA resin to remove His-tagged species. Proteins were further purified on a Superdex 75 10/300 (GE Healthcare) column in 50 mM Hepes pH 7.5, 150 mM NaCl, 0.5 mM dithiothreitol (DTT). Proteins were concentrated to >20 mg ml^−1 on a Centricon device (Millipore) and used for ITC, TSA and crystallization experiments. […] Expression and purification were performed as above, except that buffer A was replaced by buffer B (50 mM Hepes pH 7.5, 500 mM NaCl, 5% glycerol, 5 mM imidazole and protease inhibitors) and gel filtration was performed in 10 mM Hepes pH 7.5, 500 mM NaCl and 5% glycerol.
(§3) Calorimetric experiments were performed on a NanoITC calorimeter (TA Instruments) at 25 °C while stirring at 250 r.p.m. All proteins were buffer exchanged by gel filtration into 50 mM Hepes pH 7.5, 150 mM NaCl, 0.5 mM DTT, except for SMARCA2 and SMARCA4A BDs, which were exchanged into 10 mM Hepes pH 7.5, 500 mM NaCl and 5% glycerol. […] Titrations consisted of an initial injection of 1.5 μl followed by 19 identical injections of 2.5 μl made at time intervals of 5 min. ITC data were corrected for the heat of dilution of injectant into buffer and analysed with software provided by the manufacturer using a single binding site model. The first data point was excluded from the analysis. Thermodynamic parameters determined from the ITC data are summarized in Supplementary Table 1.

SMARCA4 BD = target: T5, SMARCA4 BD (Homo sapiens, UniProt P51532); test: Isothermal titration calorimetry (ITC); assay type: binding
T5 construct: Human SMARCA2 and SMARCA4 BD plasmids bearing an N-terminal His tag and TEV protease site; His tag with TEV site (N, cleaved yes); 74664; host or cells: E. coli BL21(DE3)
T5 sequence (P51532 1453-1564 limits assumed): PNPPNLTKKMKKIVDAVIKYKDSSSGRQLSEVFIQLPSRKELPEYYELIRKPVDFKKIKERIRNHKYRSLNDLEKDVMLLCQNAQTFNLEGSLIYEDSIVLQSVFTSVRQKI
Experimental: as §2, §3

CaBdf1 BD1 [5] = target: T1, CaBdf1 BD1; test: Isothermal titration calorimetry (ITC); assay type: binding
Experimental: as §2, §3

CaBdf1 BD2 [6] = target: T2, CaBdf1 BD2; test: Isothermal titration calorimetry (ITC); assay type: binding; design: His tag with TEV site (N, cleaved yes); made in house; host or cells: E. coli BL21(DE3); details: ITC
Experimental: as §2, §3
Target sequence in this assay (Q5A4W8 386-491): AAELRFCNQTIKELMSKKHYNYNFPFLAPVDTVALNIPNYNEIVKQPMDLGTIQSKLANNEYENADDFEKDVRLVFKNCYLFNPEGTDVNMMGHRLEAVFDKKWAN

human Brd4 BD1 [7] = target: T3, human Brd4 BD1; test: Isothermal titration calorimetry (ITC); assay type: binding; design: human Brd4 BD1 (residues 22–204); His tag with TEV site (N, cleaved yes); made in house; host or cells: E. coli BL21(DE3)
Experimental: as §2, §3

C. albicans = C. albicans growth assay in liquid media; assay type: cell-based
Experimental: Growth on liquid media. C. albicans strains were grown at 30 °C in SC medium to an OD600 of 0.5–0.8. For the evaluation of growth defects related to Bdf1 mutations, log-phase growing cells were counted using a Neubauer chamber and diluted in liquid media to a final concentration of 5,400 cells per ml per well in a sterile 96-well plate. Dox (50 μg ml^−1) or methionine (5 mM)/cysteine (0.25 mM) were added to the media if required. Plates were incubated at 30 °C and OD600 was measured using a Multiskan FC Microplate Photometer (Thermo Fisher). For the evaluation of chemical compounds, strains were grown in SC medium supplemented with 50 μg ml^−1 Dox or 5 mM methionine/0.25 mM cysteine 24 h before counting and then seeded in 96-well plates at the same concentration as mentioned above, with or without chemical compounds. Statistical tests were performed using two-sided Welch t-tests.

CaBdf1 BD1 Y248F = target: T6, CaBdf1 BD1 Y248F (Candida albicans, UniProt Q5A4W8, Y248F); test: Histone peptide microarray binding, YF mutant; design: species or system C. albicans; details: CaBdf1 BD1 YF mutant; for Peptide array signal, raw data, Left: left replicate array; for Peptide array signal, raw data, Right: right replicate array
T6 construct: made in house; host or cells: E. coli BL21(DE3), inferred from the wild-type GST construct
T6 sequence (Q5A4W8 193-327 Y248F): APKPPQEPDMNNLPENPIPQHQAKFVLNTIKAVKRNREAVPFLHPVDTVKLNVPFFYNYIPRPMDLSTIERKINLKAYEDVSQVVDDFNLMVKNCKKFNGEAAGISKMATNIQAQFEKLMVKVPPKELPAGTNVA
Experimental: (§4) In short, arrays were blocked and incubated with 1 μM of purified CaBdf1 BD1 or BD2. Arrays were incubated with recombinant BDs for 2 h at 4 °C in binding buffer (Tris-HCl 50 mM pH 7.4, NP-40 0.1%, NaCl 150 mM, glycerol 10%). […] Assays were performed in duplicate. Images were acquired on a Bio-Rad ChemiDoc XRS Imaging machine and data were quantified using the array analyser software provided by Active Motif.

CaBdf1 BD2 Y425F = target: T7, CaBdf1 BD2 Y425F (Candida albicans, UniProt Q5A4W8, Y425F); test: Histone peptide microarray binding, YF mutant; design: species or system C. albicans; details: CaBdf1 BD2 YF mutant; for Peptide array signal, raw data, Left: left replicate array; for Peptide array signal, raw data, Right: right replicate array
T7 construct: made in house; host or cells: E. coli BL21(DE3), inferred from the wild-type GST construct
T7 sequence (Q5A4W8 361-501 Y425F): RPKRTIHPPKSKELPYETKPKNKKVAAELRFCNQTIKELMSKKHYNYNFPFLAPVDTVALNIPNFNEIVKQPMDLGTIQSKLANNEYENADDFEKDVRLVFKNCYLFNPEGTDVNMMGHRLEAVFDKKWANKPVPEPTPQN
Experimental: as §4

CaBdf1 BD2 [8] = target: T2, CaBdf1 BD2; assay type: binding; design: made in house; host or cells: E. coli BL21(DE3); details: CaBdf1 BD2 WT; for Peptide array signal, raw data, Left: left replicate array; for Peptide array signal, raw data, Rigt: right replicate array
Experimental: as §1
Target sequence in this assay (Q5A4W8 361-501): as the sequence (Q5A4W8 361-501) above

SMARCA2 BD [9] = target: T4, SMARCA2 BD; test: BROMOscan profiling (DiscoverX); assay type: binding; details: as read by reviewer from the BROMOscan data
Experimental: (§5) BROMOscan profiling was performed by DiscoverX (Fremont, CA, USA). […] Ligand-loading densities were optimized as described.

[10] = system: 32 representative human (BET and non-BET) BDs; test: BROMOscan profiling (DiscoverX); assay type: binding; details: 10 μM; 35% of control used as cutoff for significant inhibition
Experimental: as §5

human Brd4 BD1 [11] = target: T3, human Brd4 BD1; test: BROMOscan profiling (DiscoverX); assay type: binding; design: purchased DiscoverX; host or cells: T7 phage grown in an E. coli host derived from BL21; details: 10 μM; as read by reviewer from the BROMOscan data
Experimental: as §5

CaBdf1 BD1 [12] = target: T1, CaBdf1 BD1; test: HTRF assay, inhibition of BD binding to H4ac4 peptide; design: species or system C. albicans
[13] = system: 32 representative human (BET and non-BET) BDs; design: method as in earlier work; details: cited from earlier work

O=C1c2ccccc2Sc2cc(-c3noc(-c4cnccn4)n3)ccc2N1C1CC1 [Compound 1]
Peptide array signal, Normalized (0 to 100%), Average (CaBdf1 BD1 [1]): 0% | Peptide array signal, raw data, Left (CaBdf1 BD1 [1]): 0 | Peptide array signal, raw data, Rigt (CaBdf1 BD1 [1]): 0.003741 | inhibition of CaBdf1 BD2 (in words) (CaBdf1 BD2 [2]): no or only modest binding and inhibition | IC50 (human Brd4 BD1 [3]; HTRF, H4ac4 peptide): ~40 µM | inhibition of Brd4 BD1 (in words) (human Brd4 BD1 [3]; HTRF, highest concentration 20 μM): no or only modest binding and inhibition | binding to SMARCA2 BD (in words) (SMARCA2 BD [4]): no detectable binding; also recorded: did not detectably bind | binding to SMARCA4 BD (in words) (SMARCA4 BD): no detectable binding; also recorded: did not detectably bind | N (stoichiometry) (CaBdf1 BD1 [5]; ITC, 25 °C): 0.91 ± 0.06 | TΔS (CaBdf1 BD1 [5]; ITC, 25 °C): 20.44 kJ/mol | ΔH (CaBdf1 BD1 [5]; ITC, 25 °C): -9.8 ± 2.6 kJ/mol | binding to CaBdf1 BD2 (in words) (CaBdf1 BD2 [6]): no or only modest binding and inhibition | binding to Brd4 BD1 (in words) (human Brd4 BD1 [7]; ITC): no or only modest binding and inhibition | antifungal activity against mutant strains in which either BD1 or BD2 was inactivated (in words) (C. albicans; liquid media, WT allele repressed): little antifungal activity; also recorded: did not significantly inhibit growth | Peptide array signal, raw data, Left (CaBdf1 BD1 Y248F): 0 | Peptide array signal, raw data, Right (CaBdf1 BD1 Y248F): 0.001715 | Peptide array signal, raw data, Left (CaBdf1 BD2 Y425F): 0 | Peptide array signal, raw data, Right (CaBdf1 BD2 Y425F): 0.001456 | Peptide array signal, Normalized (0 to 100%), Average (CaBdf1 BD2 [8]): 0.259% | Peptide array signal, raw data, Left (CaBdf1 BD2 [8]): 0.004804 | Peptide array signal, raw data, Rigt (CaBdf1 BD2 [8]): 0.01167 | inhibition at 10 µM (SMARCA2 BD [9]): ~65% | activity against human BDs in BROMOscan (in words) [10]: no significant inhibition was detected; also recorded: no significant activity; also recorded: do not significantly inhibit | inhibition in BROMOscan (in words) (human Brd4 BD1 [11]): hardly inhibits

CN1C(=O)c2ccccc2Sc2cc(NC(=O)C3CCCO3)ccc21 (stereo not shown) [Compound 3]
Peptide array signal, Normalized (0 to 100%), Average (CaBdf1 BD1 [1]): 0.0363% | Peptide array signal, raw data, Left (CaBdf1 BD1 [1]): 0.001069 | Peptide array signal, raw data, Rigt (CaBdf1 BD1 [1]): 0.003207 | inhibition of CaBdf1 BD1 (in words) (CaBdf1 BD1 [12]; HTRF): low-micromolar affinity | IC50 for Brd4 BD1 relative to IC50 for CaBdf1 BD1 (CaBdf1 BD1 [12]; HTRF IC50 ratio): 7 fold | IC50 (CaBdf1 BD1 [12]; HTRF, H4ac4 peptide, read-out: IC50): 1700 ± 600 nM | IC50 (human Brd4 BD1 [3]): 12.5 ± 0.8 µM | Kd (CaBdf1 BD1 [5]): 4.8 ± 0.2 µM | N (stoichiometry) (CaBdf1 BD1 [5]; ITC, 25 °C): 1.05 ± 0.03 | TΔS (CaBdf1 BD1 [5]; ITC, 25 °C): 1.84 kJ/mol | ΔG (CaBdf1 BD1 [5]; ITC, 25 °C): -30.34 kJ/mol | ΔH (CaBdf1 BD1 [5]; ITC, 25 °C): -28.5 ± 0.5 kJ/mol | Kd (human Brd4 BD1 [7]): 13.4 ± 1.7 µM | N (stoichiometry) (human Brd4 BD1 [7]; ITC, 25 °C): 0.92 ± 0.03 | TΔS (human Brd4 BD1 [7]; ITC, 25 °C): 13.00 kJ/mol | ΔG (human Brd4 BD1 [7]; ITC, 25 °C): -27.80 kJ/mol | ΔH (human Brd4 BD1 [7]; ITC, 25 °C): -14.8 ± 1.9 kJ/mol | EC50 (C. albicans; Candida albicans, read-out: cellular EC50): 35 ± 7 µM | growth of strains expressing WT Bdf1 or Bdf1 inactivated in BD1 (functional BD2) (in words) (C. albicans; liquid culture, Met/Cys or Dox): little effect; also recorded: insensitive | growth of strains inactivated in BD2 (bdf1-bd2Δ, bdf1-Y425F) (in words) (C. albicans; liquid culture, Met/Cys or Dox): significantly inhibited; also recorded: compromises the in vitro growth; also recorded: sensitive | Peptide array signal, raw data, Left (CaBdf1 BD1 Y248F): 0.004458 | Peptide array signal, raw data, Right (CaBdf1 BD1 Y248F): 0.001715 | Peptide array signal, raw data, Left (CaBdf1 BD2 Y425F): 0.001942 | Peptide array signal, raw data, Right (CaBdf1 BD2 Y425F): 0.002427 | Peptide array signal, Normalized (0 to 100%), Average (CaBdf1 BD2 [8]): 0.296% | Peptide array signal, raw data, Left (CaBdf1 BD2 [8]): 0.005491 | Peptide array signal, raw data, Rigt (CaBdf1 BD2 [8]): 0.01167

Cc1sc2c(c1C)C(c1ccc(Cl)cc1)=N[C@@H](CC(=O)NCCCCNC(=O)COc1cccc3c1C(=O)N(C1CCC(=O)NC1=O)C3=O)c1nnc(C)n1-2 (stereo partly shown) [dBET1]
BROMOscan signal, percent of control ([13]; CREBBP, EP300, FALZ and SMARCA4): 25-35% | BROMOscan signal, percent of control ([13]; six BET BDs): 0% | BROMOscan signal, percent of control ([13]; the other two BET BDs): 0.25% and 1.6% | BROMOscan signal, percent of control ([13]; the remaining BDs): > 35%
